Experimental findings from patent EP0142075A2, “Purine derivatives, their preparation, and medicaments containing these compounds” (Dr. Karl Thomae GmbH, priority 1983, dated 1985) are described below.

Like-named read-outs stand apart in the source and are kept apart here.

Data set [1] in a line: Acute toxicity (orientating), single oral dose in mice. The conditions noted are these: mouse, in vivo, read-out: Orientierend akute Toxizität. As for the experimental part:
(§1) Die akute Toxizität der zu untersuchenden Substanzen wurde orientierend an Gruppen von je 10 Mäusen nach oraler Gabe einer Einzeldosis von 300 mg/kg bestimmt (Beobachtungszeit: 14 Tage): […]

The test system of data set [2] is Mäusen. Described as above. The conditions noted are these: in vivo, po, 300 mg/kg. As for the experimental part:
as §1

Setting [3] is: mice, groups of 10, single oral dose of 300 mg/kg, observation time 14 days.

For `C#CCOc1ccc(-c2nc3ncncc3[nH]2)c(OC)c1` [Substanz A, 8-(2-Methoxy-4-propargyloxyphenyl)-purin], the LD50 at 336 h in data set [1] (setting [3]) is over 300 mg/kg. Moreover, the Tieren gestorben in data set [2] is given as 0 von 10.

Turning to `COC(=O)COc1ccc(-c2nc3ncncc3[nH]2)c(OC)c1` [Substanz B, 8-(2-Methoxy-4-methoxycarbonylmethoxyphenyl)-purin], the LD50 at 336 h in data set [1] (setting [3]) was over 300 mg/kg. The compound also registered a Tieren gestorben in data set [2] of 0 von 10.

Take `COc1cc(OCC#N)ccc1-c1nc2cncnc2[nH]1` [Substanz C, 8-(2-Methoxy-4-cyanmethoxyphenyl)-purin]: the LD50 at 336 h in data set [1] (po, 300 mg/kg) is over 300 mg/kg. Besides, the Tieren gestorben in data set [2] was > 300 mg/kg (O von 10 Tieren gestorben).
